# Read-outs that look alike come from different tables or passages of the source.
# Target: T1, human CA-II (Homo sapiens, UniProt P00918)
# T1 construct: purchased Sigma-Aldrich C6165
# Assay: Carbonic Anhydrase-II (CA-II) Fluorimetric Assay-IC50 Determination
# Type: biochemical
# Conditions: for inhibition at 0.01 µM: at 10 nM (c7), read-out: CA-II % inhibition at concentration of column 7
# Method: Carbonic Anhydrase-II (CA-II) Fluorimetric Assay-IC50 Determination
# Compounds were diluted in DMSO at the concentration of 1 mM, then 50 μM and transferred to a 96-well plate for further dilutions (1:3 dilution, 11 points) in duplicate. Highest final concentration of compound in this CA-II Fluorimetric assay is 1 μM. Assays were conducted in a final volume of 100 μL in 50 mM Tris/HCl (pH 7.6), 100 mM Na2SO4 and 0.005% Tween-20 in a 96-well black assay plate. Fluorescein diacetate was used as the substrate. Enzyme inhibition was determined by pipetting 8 μL of human CA-II (5 nM, from Sigma-Aldrich, product #: C6165) into assay plate contained 2 μL of compound and 2 μL of substrate (10 μM) in 88 μL of assay buffer. The rate of the hydrolysis of fluorescein diacetate were measured spectrophometrically at 488 nm (excitation), 538 nm (emission) and 530 nm (cutoff) using a Molecular Devices SpectraMax M2 fluorescence reader at 25° C.
# [1] = given instead of Kd (ND), read-out: CA-II IC50
# [2] = Kd ND, IC50 given instead, read-out: CA-II IC50 (where Kd is ND)
inhibition at 0.01 µM [%],IC50 [1] [nM],IC50 [2] [nM],SMILES
95,–,–,"Cc1cc(CN(C)C(=O)c2nc(Cc3ccccc3)n(-c3ccc(S(N)(=O)=O)cc3)n2)n[nH]1 [Example R-50, 1-[4-(aminosulfonyl)phenyl]-5-benzyl-N-methyl-N-[(5-methyl-1H-pyrazol-3-yl)methyl]-1H-124-triazole-3-carboxamide]"
97,–,–,"CCCc1cc(CN(C)C(=O)c2nc(Cc3ccccc3)n(-c3ccc(S(N)(=O)=O)cc3)n2)n[nH]1 [Example R-51, 1-[4-(aminosulfonyl)phenyl]-5-benzyl-N-methyl-N-[(5-propyl-1H-pyrazol-3-yl)methyl]-1H-124-triazole-3-carboxamide]"
96,2.83,–,"NS(=O)(=O)c1ccc(-n2nc(C(=O)N3CCc4ccccc4C3)nc2Cc2ccccc2)cc1 [Example R-52, 4-[5-benzyl-3-(34-dihydroisoqionolin-2(1H)-ylcarbonyl)-1H-124-triazol-1-yl]benzenesulfonamide]"
92,3.36,–,"NS(=O)(=O)c1ccc(-n2nc(C(=O)N3CCCCC3Cc3ccccc3)nc2Cc2ccccc2)cc1 (centres unmarked) [Example R-53, 4-(5-benzyl-3-[(2-benzylpiperidin-1-yl)carbonyl]-1H-124-triazol-1-yl)benzenesulfonamide]"
97,–,–,"CN(CC(C)(O)c1ccccc1)C(=O)c1nc(Cc2ccccc2)n(-c2ccc(S(N)(=O)=O)cc2)n1 (centres unmarked) [Example R-54, 1-[4-(aminosulfonyl)phenyl]-5-benzyl-N-(2-hydroxy-2-phenylpropyl)-N-methyl-1H-124-triazole-3-carboxamide]"
97,–,–,"NS(=O)(=O)c1ccc(-n2nc(C(=O)N3CCC(c4ccccn4)C3)nc2Cc2ccccc2)cc1 (centres unmarked) [Example R-55, 4-(5-benzyl-3-[(3-pyridin-2-ylpyrrolidin-1-yl)carbonyl]-1H-124-triazol-1-yl)benzenesulfonamide]"
95,–,–,"Cc1csc(CN(C)C(=O)c2nc(Cc3ccccc3)n(-c3ccc(S(N)(=O)=O)cc3)n2)n1 [Example R-56, 1-[4-(aminosulfonyl)phenyl]-5-benzyl-N-methyl-N-[(4-methyl-13-thiazol-2-yl)methyl]-1H-124-triazole-3-carboxamide]"
96,–,–,"NS(=O)(=O)c1ccc(-n2nc(C(=O)N3CCc4nocc4C3)nc2Cc2ccccc2)cc1 [Example R-57, 4-[5-benzyl-3-(67-dihydroisoxazolo[43-c]pyridin-5(4H)-ylcarbonyl)-1H-124-triazol-1-yl]benzenesulfonamide]"
98,–,–,"CCCN(CCc1ccccn1)C(=O)c1nc(Cc2ccccc2)n(-c2ccc(S(N)(=O)=O)cc2)n1 [Example R-58, 1-[4-(aminosulfonyl)phenyl]-5-benzyl-N-propyl-N-(2-pyridin-2-ylethyl)-1H-124-triazole-3-carboxamide]"
97,–,–,"NS(=O)(=O)c1ccc(-n2nc(C(=O)N3CC(CO)C(c4ccccn4)C3)nc2Cc2ccccc2)cc1 (centres unmarked) [Example R-59, 4-(5-benzyl-3-{[(3R4R)-3-(hydroxymethyl)-4-pyridin-2-ylpyrrolidin-1-yl]carbonyl}-1H-124-triazol1-yl)benzenesulfonamide]"
92,–,–,"Cc1nc(CN(C)C(=O)c2nc(Cc3ccccc3)n(-c3ccc(S(N)(=O)=O)cc3)n2)cs1 [Example R-60, 1-[4-(aminosulfonyl)phenyl]-5-benzyl-N-methyl-N-[(2-methyl-13-thiazol-4-yl)methyl]-1H-124-triazole-3-carboxamide]"
94,–,–,"NS(=O)(=O)c1ccc(-n2nc(C(=O)N3CCc4conc4CC3)nc2Cc2ccccc2)cc1 [Example R-61, 4-[5-benzyl-3-(4578-tetrahydro-6H-isoxazolo[34-d]azepin-6-ylcarbonyl)-1H-124-triazol-1-yl]benzenesulfonamide]"
96,–,–,"CN(CCc1cn[nH]c1)C(=O)c1nc(Cc2ccccc2)n(-c2ccc(S(N)(=O)=O)cc2)n1 [Example R-62, 1-[4-(aminosulfonyl)phenyl]-5-benzyl-N-methyl-N-[2-(1H-pyrazol-4-yl)ethyl]-1H-124-triazole-3-carboxamide]"
95,–,–,"Cc1noc(C2CCN(C(=O)c3nc(Cc4ccccc4)n(-c4ccc(S(N)(=O)=O)cc4)n3)C2)n1 (centres unmarked) [Example R-63, 4-(5-benzyl-3-{[3-(3-methyl-124-oxadiazol-5-yl)pyrrolidin-1-yl]carbonyl}-1H-124-triazol-1-yl)benzenesulfonamide]"
94,2.95,–,"Cc1cc(CN(C)C(=O)c2nc(Cc3ccccc3)n(-c3ccc(S(N)(=O)=O)cc3)n2)on1 [Example R-64, 1-[4-(aminosulfonyl)phenyl]-5-benzyl-N-methyl-N-[(3-methylisoxazol-5-yl)methyl]-1H-124-triazole-3-carboxamide]"
90,–,–,"Cc1ncsc1CCN(C)C(=O)c1nc(Cc2ccccc2)n(-c2ccc(S(N)(=O)=O)cc2)n1 [Example R-65, 1-[4-(aminosulfonyl)phenyl]-5-benzyl-N-methyl-N-[2-(4-methyl-13-thiazol-5-yl)ethyl]-1H-124-triazole-3-carboxamide]"
88,3.55,–,"Cc1cc(C)n(CCN(C)C(=O)c2nc(Cc3ccccc3)n(-c3ccc(S(N)(=O)=O)cc3)n2)n1 [Example R-66, 1-[4-(aminosulfonyl)phenyl]-5-benzyl-N-[2-(35-dimethyl-1H-pyrazol-1-yl)ethyl]-N-methyl-1H-124-triazole-3-carboxamide]"
97,3.72,–,"NS(=O)(=O)c1ccc(-n2nc(C(=O)N3CCCC(c4cc[nH]n4)C3)nc2Cc2ccccc2)cc1 (centres unmarked) [Example R-67, 4-(5-benzyl-3-{[3-(1H-pyrazol-3-yl)piperidin-1-yl]carbonyl}-1H-124-triazol-1-yl)benzenesulfonamide]"
92,3.75,–,"NS(=O)(=O)c1ccc(-n2nc(C(=O)N3CCCC3Cc3cccnc3)nc2Cc2ccccc2)cc1 (centres unmarked) [Example R-68, 4-(5-benzyl-3-{[2-(pyridin-3-ylmethyl)pyrrolidin-1-yl]carbonyl}-1H-124-triazol-1-yl)benzenesulfonamide]"
97,3.49,–,"NS(=O)(=O)c1ccc(-n2nc(C(=O)N3CCC(c4cccnc4)C3)nc2Cc2ccccc2)cc1 (centres unmarked) [Example R-69, 4-{5-benzyl-3-[(3-pyridin-3-ylpyrrolidin-1-yl)carbonyl]-1H-124-triazol-1-yl}benzenesulfonamide]"
94,3.06,–,"CCc1nc(CN(C)C(=O)c2nc(Cc3ccccc3)n(-c3ccc(S(N)(=O)=O)cc3)n2)no1 [Example R-70, 1-[4-(aminosulfonyl)phenyl]-5-benzyl-N-[(5-ethyl-124-oxadiazol-3-yl)methyl]-N-methyl-1H-124-triazole-3-carboxamide]"
–,–,3.5,"CC(C)C1(CO)CCN(C(=O)c2nc(Cc3ccccc3)n(-c3ccc(S(N)(=O)=O)cc3)n2)CC1 [Example R-73, 4-(5-benzyl-3-{[4-(hydroxymethyl)-4-isopropylpiperidin-1-yl]carbonyl}-1H-124-triazol-1-yl)benzenesulfonamide]"
–,–,3.43,"N#CCCN(C(=O)c1nc(Cc2ccccc2)n(-c2ccc(S(N)(=O)=O)cc2)n1)C1CCCC1 [Example R-74, 1-[4-(aminosulfonyl)phenyl]-5-benzyl-N-(2-cyanoethyl)-N-cyclopentyl-1H-124-triazole-3-carboxamide]"
–,–,3.19,"NS(=O)(=O)c1ccc(-n2nc(C(=O)N3CC(Cc4ccccc4)C3)nc2Cc2ccccc2)cc1 [Example R-91, 4-{5-benzyl-3-[(3-benzylazetidin-1-yl)carbonyl]-1H-124-triazol-1-yl}benzenesulfonamide]"
–,–,3.35,"CCCN(CC1CCCO1)C(=O)c1nc(Cc2ccccc2)n(-c2ccc(S(N)(=O)=O)cc2)n1 (centres unmarked) [Example R-95, 1-[4-(aminosulfonyl)phenyl]-5-benzyl-N-propyl-N-(tetrahydrofuran-2-ylmethyl)-1H-124-triazole-3-carboxamide]"
–,–,3.34,"CC(C)(C)N(CCC#N)C(=O)c1nc(Cc2ccccc2)n(-c2ccc(S(N)(=O)=O)cc2)n1 [Example R-96, 1-[4-(aminosulfonyl)phenyl]-5-benzyl-N-(tert-butyl)-N-(2-cyanoethyl)-1H-124-triazole-3-carboxamide]"
–,–,3.48,"CN(CC(F)(F)F)C(=O)c1nc(Cc2ccccc2)n(-c2ccc(S(N)(=O)=O)cc2)n1 [Example R-101, 1-[4-(aminosulfonyl)phenyl]-5-benzyl-N-methyl-N-(222-trifluoroethyl)-1H-124-triazole-3-carboxamide]"
–,–,3,"CCN(Cc1ccccc1)C(=O)c1nc(Cc2ccccc2)n(-c2ccc(S(N)(=O)=O)cc2)n1 [Example R-102, 1-[4-(aminosulfonyl)phenyl]-N5-dibenzyl-N-ethyl-1H-124-triazole-3-carboxamide]"
–,–,3.12,"COc1cccc(CN(C)C(=O)c2nc(Cc3ccccc3)n(-c3ccc(S(N)(=O)=O)cc3)n2)c1 [Example R-103, 1-[4-(aminosulfonyl)phenyl]-5-benzyl-N-(3-methoxybenzyl)-N-methyl-1H-124-triazole-3-carboxamide]"
–,–,3.51,CC(C)C1CCCCN1C(=O)c1nc(Cc2ccccc2)n(-c2ccc(S(N)(=O)=O)cc2)n1 (centres unmarked) [Example R-104]

# Source: patent publication US20100256357A1, “HETEROCYCLES USEFUL AS INHIBITORS OF CARBONIC ANHYDRASE” (Agouron Pharmaceuticals, Inc., priority 2006, published 2010)
